Source: the supplement of paper PMC10307832

Assays:
Experiment in all cases: relative viability (nuclei count vs DMSO), 5 days (fraction); higher = more cells survive
[1] = test system: EMC-BAC-2
How it was run: (§1)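 A single step with final 0.05% Triton X-100, 1% formaldehyde and 1 ug/ml Hoechst fixed the cells and stained nuclei 5 days after treatment. Lung cancer cell lines in 1536-well plates had been treated by pin tool the day after seeding with one drug alone or a fixed anchor-drug dose plus five library-drug doses (not always all listed) in √10 steps, and nuclei were counted on 4× images. Relative viability is the ratio of nuclei in treated wells to nuclei in vehicle wells, taken as the median of duplicate plates.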

[2] = test system: NCI-H23
How it was run: as §1

[3] = test system: NCI-H1915
How it was run: as §1

[4] = test system: HOP-62
How it was run: as §1

[5] = test system: NCI-H460
How it was run: as §1

[6] = test system: CAL-12T
How it was run: as §1

[7] = test system: LCLC-103H
How it was run: as §1

[8] = test system: NCI-H1755
How it was run: as §1

[9] = test system: NCI-H727
How it was run: as §1

[10] = test system: A-427
How it was run: as §1

[11] = test system: NCI-H1792
How it was run: as §1

[12] = test system: HCC-827
How it was run: as §1

[13] = test system: SW 1573
How it was run: as §1

[14] = test system: SK-LU-1
How it was run: as §1

[15] = test system: HARA
How it was run: as §1

[16] = test system: NCI-H2009
How it was run: as §1

[17] = test system: HCC-366
How it was run: as §1

[18] = test system: COR-L 105
How it was run: as §1

[19] = test system: NCI-H2228
How it was run: as §1

[20] = test system: NCI-H1437
How it was run: as §1

Work on `CCN(CC)CCCCNc1ncc2cc(-c3cc(OC)cc(OC)c3)c(NC(=O)NC(C)(C)C)nc2n1` + C[C@@H](Oc1cc(-c2cnn(C3CCNCC3)c2)cnc1N)c1c(Cl)ccc(F)c1Cl [Crizotinib] (partner 1 µM) yielded a relative viability ([1]; first compound 0.01 µM) of 0.851, a relative viability ([1]; first compound 0.03162 µM) of 0.761 and a relative viability ([1]; first compound 0.1 µM) of 0.85. For the same compound, the relative viability ([1]; first compound 0.3162 µM) was 0.839, the relative viability ([1]; first compound 1 µM) was 0.735 and the relative viability ([2]; first compound 0.01 µM) was 0.537. For the same compound, the relative viability ([2]; first compound 0.03162 µM) was 0.568, the relative viability ([2]; first compound 0.1 µM) was 0.496 and the relative viability ([2]; first compound 0.3162 µM) was 0.536. The relative viability ([2]; first compound 1 µM) was 0.511, the relative viability ([3]; first compound 0.01 µM) was 1.1 and the relative viability ([3]; first compound 0.03162 µM) was 0.926. The relative viability ([3]; first compound 0.1 µM) was 0.943, the relative viability ([3]; first compound 0.3162 µM) was 1.03 and the relative viability ([3]; first compound 1 µM) was 0.935. For the same compound, the relative viability ([4]; first compound 0.01 µM) was 0.967, the relative viability ([4]; first compound 0.03162 µM) was 1.14 and the relative viability ([4]; first compound 0.1 µM) was 0.903. The relative viability ([4]; first compound 0.3162 µM) was 1.08, the relative viability ([4]; first compound 1 µM) was 1.08 and the relative viability ([5]; first compound 0.01 µM) was 1.15. The relative viability ([5]; first compound 0.03162 µM) was 0.934, the relative viability ([5]; first compound 0.1 µM) was 1.36 and the relative viability ([5]; first compound 0.3162 µM) was 1.07. The relative viability ([5]; first compound 1 µM) was 0.797, the relative viability ([6]; first compound 0.01 µM) was 0.809 and the relative viability ([6]; first compound 0.03162 µM) was 0.612. It also gave a relative viability ([6]; first compound 0.1 µM) of 0.553, a relative viability ([6]; first compound 0.3162 µM) of 0.666 and a relative viability ([6]; first compound 1 µM) of 0.533. It also gave a relative viability ([7]; first compound 0.01 µM) of 1.11, a relative viability ([7]; first compound 0.03162 µM) of 1.04 and a relative viability ([7]; first compound 0.1 µM) of 1.07. The relative viability ([7]; first compound 0.3162 µM) was 1.05, the relative viability ([7]; first compound 1 µM) was 1.05 and the relative viability ([8]; first compound 0.01 µM) was 0.928. It also gave a relative viability ([8]; first compound 0.03162 µM) of 0.94, a relative viability ([8]; first compound 0.1 µM) of 1.17 and a relative viability ([8]; first compound 0.3162 µM) of 0.984. For the same compound, the relative viability ([8]; first compound 1 µM) was 0.892, the relative viability ([9]; first compound 0.01 µM) was 0.829 and the relative viability ([9]; first compound 0.03162 µM) was 0.923. The relative viability ([9]; first compound 0.1 µM) was 1.03, the relative viability ([9]; first compound 0.3162 µM) was 1.06 and the relative viability ([9]; first compound 1 µM) was 0.837. The relative viability ([10]; first compound 0.01 µM) was 0.886, the relative viability ([10]; first compound 0.03162 µM) was 0.812 and the relative viability ([10]; first compound 0.1 µM) was 0.875. It also gave a relative viability ([10]; first compound 0.3162 µM) of 0.909, a relative viability ([10]; first compound 1 µM) of 0.727 and a relative viability ([11]; first compound 0.01 µM) of 1.07. The relative viability ([11]; first compound 0.03162 µM) was 1.02, the relative viability ([11]; first compound 0.1 µM) was 1.33 and the relative viability ([11]; first compound 0.3162 µM) was 1.41. For the same compound, the relative viability ([11]; first compound 1 µM) was 0.541, the relative viability ([12]; first compound 0.01 µM) was 0.979 and the relative viability ([12]; first compound 0.03162 µM) was 0.958. It also gave a relative viability ([12]; first compound 0.1 µM) of 0.968, a relative viability ([12]; first compound 0.3162 µM) of 0.966 and a relative viability ([12]; first compound 1 µM) of 0.937. It also gave a relative viability ([13]; first compound 0.01 µM) of 0.69, a relative viability ([13]; first compound 0.03162 µM) of 0.813 and a relative viability ([13]; first compound 0.1 µM) of 1.05. For the same compound, the relative viability ([13]; first compound 0.3162 µM) was 0.774, the relative viability ([13]; first compound 1 µM) was 0.722 and the relative viability ([14]; first compound 0.01 µM) was 0.908. For the same compound, the relative viability ([14]; first compound 0.03162 µM) was 1.02, the relative viability ([14]; first compound 0.1 µM) was 0.901 and the relative viability ([14]; first compound 0.3162 µM) was 1. It also gave a relative viability ([14]; first compound 1 µM) of 0.641, a relative viability ([15]; first compound 0.01 µM) of 1.19 and a relative viability ([15]; first compound 0.03162 µM) of 1.03. The relative viability ([15]; first compound 0.1 µM) was 1.26, the relative viability ([15]; first compound 0.3162 µM) was 1.17 and the relative viability ([15]; first compound 1 µM) was 0.816. For the same compound, the relative viability ([16]; first compound 0.01 µM) was 1.1, the relative viability ([16]; first compound 0.03162 µM) was 1.08 and the relative viability ([16]; first compound 0.1 µM) was 1.13. For the same compound, the relative viability ([16]; first compound 0.3162 µM) was 1.11, the relative viability ([16]; first compound 1 µM) was 0.953 and the relative viability ([17]; first compound 0.01 µM) was 0.632. It also gave a relative viability ([17]; first compound 0.03162 µM) of 0.924, a relative viability ([17]; first compound 0.1 µM) of 0.947 and a relative viability ([17]; first compound 0.3162 µM) of 0.741. It also gave a relative viability ([17]; first compound 1 µM) of 0.512, a relative viability ([18]; first compound 0.01 µM) of 0.795 and a relative viability ([18]; first compound 0.03162 µM) of 0.796. For the same compound, the relative viability ([18]; first compound 0.1 µM) was 0.887, the relative viability ([18]; first compound 0.3162 µM) was 0.777 and the relative viability ([18]; first compound 1 µM) was 0.658. It also gave a relative viability ([19]; first compound 0.01 µM) of 0.408, a relative viability ([19]; first compound 0.03162 µM) of 0.564 and a relative viability ([19]; first compound 0.1 µM) of 0.348. The relative viability ([19]; first compound 0.3162 µM) was 0.358, the relative viability ([19]; first compound 1 µM) was 0.243 and the relative viability ([20]; first compound 0.01 µM) was 1.12. It also gave a relative viability ([20]; first compound 0.03162 µM) of 0.993, a relative viability ([20]; first compound 0.1 µM) of 0.987 and a relative viability ([20]; first compound 0.3162 µM) of 1.16. The relative viability ([20]; first compound 1 µM) was 0.756.
